In one test the test system is soybean (GLXMA). Description: Test H preemergence mixture test (Colby). To be noted: for Plant response rating, Obsd., GLXMA: 21 d after treatment, scale 0 to 100; for GLXMA Obsd.: applied alone, 21 d, mean of three replicates, scale 0-100. Format: in vivo, Glycine max.
In the next test the test system is corn (ZEAMD). In words: Test H preemergence mixture test (Colby). The conditions noted are these: for Plant response rating, Obsd., ZEAMD: 21 d after treatment, scale 0 to 100; for ZEAMD Obsd.: applied alone, 21 d, mean of three replicates, scale 0-100. Format: in vivo, Zea mays.
The test system of the next test is waterhemp (AMATA). Description: Test H preemergence mixture test (Colby). The conditions noted are these: for Plant response rating, Obsd., AMATA: 21 d after treatment, scale 0 to 100; for AMATA Obsd.: applied alone, 21 d, mean of three replicates, scale 0-100. The test is classed as in vivo, Amaranthus rudis. From the text: Colby's Equation was used to determine the herbicidal effects expected from the mixtures. Colby's Equation (Colby, S. R. “Calculating Synergistic and Antagonistic Responses of Herbicide Combinations,” Weeds, 15(1), pp 20-22 (1967)) calculates the expected additive effect of herbicidal mixtures and for two active ingredients is of the form: Pa+b=Pa+Pb−(PaPb/100)
where • Pa+b is the percentage effect of the mixture expected from additive contribution of the individual components: • Pa is the observed percentage effect of the first active ingredient at the same use rate as in the mixture, and • Pb is the observed percentage effect of the second active ingredient at the same use rate as in the mixture. In the following Tables, rates are shown in grams of active ingredient per hectare (g a.i./ha); “Obsd.” is the observed effect. “Exp.” is the expected effect calculated from Colby's Equation.
This test evaluated the effect of mixtures of compound 80 with several commercial herbicides on four plant species. Seeds of plant species selected from corn (ZEAMD, Zea mays), soybean (GLXMA, Glycine max), waterhemp (common waterhemp, AMATA, Amaranthus rudis), and giant foxtail (SETFA, Setaria faberii) were planted into a silt loam soil and treated preemergence with test chemicals formulated in a non-phytotoxic solvent mixture which included a surfactant and applied using a volume of 281 L/ha. Each treatment was replicated three times. Treated plants and controls were maintained in a greenhouse using supplemental lighting to maintain a photoperiod of about 16 h; daytime and nighttime temperatures were about 24-30° C. and 19-21° C., respectively. Nutrients were applied using a balanced fertilizer applied through the watering system. At 21 d after treatment, all species were compared to controls and visually evaluated. Plant response ratings were calculated as the means of the three replicates, are summarized in Tables H1 through H5, and are based on a scale of 0 to 100 where 0 is no effect and 100 is complete control. A dash (-) response means no test result. The Expected (Exp.) results were calculated using Colby's Equation as described for Test G above.

The next test concerns ducksalad (HETLI). In words: Test G paddy mixture test (Colby). The test is classed as in vivo, Heteranthera limosa. The conditions noted are these: applied alone, 14 d; for HETLI Obsd.: scale 0-100; for HETLI Obsd. plant response rating (scale 0 to 100): flooded. The procedure:
(§1) Seeds of small-flower umbrella […], Cyperus difformis) and […], Heteranthera limosa) were sown on the soil surface in two separate quadrants of 11-cm (4-inch) tubs filled with steam pasteurized Tama soil. Simultaneously, plantings of […], Echinochloa crus-galli) and transplanted japonica rice (ORYSA, Oryza sativa) were established in separate “plug” flats. […] Herbicide application timing was targeted at the 2.0 to 2.5 leaf stage and the plants were treated with test chemicals formulated in a non-phytotoxic solvent. Treated plants and controls were maintained in a greenhouse for 14 d, after which time all species were compared to controls and visually evaluated. Plant response ratings are summarized in Tables G1 through G12, and are based on a scale of 0 to 100 where 0 is no effect and 100 is complete control. A dash (-) response means no test result. Colby's Equation was used to determine the herbicidal effects expected from the mixtures. Colby's Equation (Colby, S. R. “Calculating Synergistic and Antagonistic Responses of Herbicide Combinations,” Weeds, 15(1), pp 20-22 (1967)) calculates the expected additive effect of herbicidal mixtures and for two active ingredients is of the form: Pa+b=Pa+Pb-(PaPb/100) where • Pa+b is the percentage effect of the mixture expected from additive contribution of the individual components: • Pa is the observed percentage effect of the first active ingredient at the same use rate as in the mixture, and • Pb is the observed percentage effect of the second active ingredient at the same use rate as in the mixture. In the following Tables, rates are shown in grams of active ingredient per […]); “Obsd.” is the observed effect. “Exp.” is the expected effect calculated from Colby's Equation.

Test [1] deals with small-flower umbrella sedge (CYPDI). In words: Test G paddy mixture test (Colby). The test is classed as in vivo, Cyperus difformis. The conditions noted are these: applied alone, 14 d; for CYPDI Obsd.: scale 0-100; for CYPDI Obsd. plant response rating (scale 0 to 100): flooded. In short, it runs like this: (§2)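 Weeds sown in Tama soil tubs; barnyardgrass and transplanted japonica rice grown in plug flats. Treated at 2.0–2.5 leaf stage; visual rating 0–100 versus controls after 14 d in greenhouse. Expected mixture effect calculated with Colby's equation; rates in g a.i. per area.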

Another test deals with barnyardgrass (ECHCG). In words: Test G paddy mixture test (Colby). The test is classed as in vivo, Echinochloa crus-galli. To be noted: applied alone, 14 d; for ECHCG Obsd.: scale 0-100; for ECHCG Obsd. plant response rating (scale 0 to 100): flooded. In short, it runs like this:
as §2

The test system of test [2] is transplanted japonica rice (ORYSA). Description: Test G paddy mixture test (Colby). Format: in vivo, Oryza sativa. To be noted: applied alone, 14 d; for ORYSA Obsd.: scale 0-100; for ORYSA Obsd. plant response rating (scale 0 to 100): flooded. The protocol: as §1

For `O=C1NCC(c2ccc(C(F)(F)F)cc2)C1C(=O)Nc1cccc(F)c1F` (stereo not shown) [Compound 80, N-(2,3-difluorophenyl)-2-oxo-4-[4-(trifluoromethyl)phenyl]-3-pyrrolidinecarboxamide], the “Plant response rating, Obsd., GLXMA” value with soybean (GLXMA) (Cmpd 80 alone 62 g a.i./ha) is reported as 12; in the test on soybean (GLXMA) (Cmpd 80 alone 125 g a.i./ha) it was 0. In addition, the “GLXMA Obsd.” value with soybean (GLXMA) (62 g a.i./ha) was determined as 12; in the test on soybean (GLXMA) (125 g a.i./ha), 0. Also, the “Plant response rating, Obsd., ZEAMD” value was 17 in the test on corn (ZEAMD) (Cmpd 80 alone 62 g a.i./ha) and 13 in the test with corn (ZEAMD) (Cmpd 80 alone 125 g a.i./ha). The entries for the “ZEAMD Obsd.” value in the test on corn (ZEAMD) (62 g a.i./ha) and in the test with corn (ZEAMD) (125 g a.i./ha) were 17 and 13, respectively. Also, the “Plant response rating, Obsd., AMATA” value with waterhemp (AMATA) (Cmpd 80 alone 62 g a.i./ha) was 0; in the test with waterhemp (AMATA) (Cmpd 80 alone 125 g a.i./ha) it was 33. In addition, the “AMATA Obsd.” value in the test with waterhemp (AMATA) (62 g a.i./ha) was 0; in the test with waterhemp (AMATA) (125 g a.i./ha), 33.
With `O=C1NC[C@H](c2cccc(C(F)(F)F)c2)[C@H]1C(=O)Nc1ccccc1F` [Compound 204, (3R,4S)—N-(2-fluorophenyl)-2-oxo-4-[3-(trifluoromethyl)phenyl]-3-pyrrolidinecarboxamide], the “HETLI Obsd.” value with ducksalad (HETLI) (125 g a.i./ha) and in the test with ducksalad (HETLI) (500 g a.i./ha) was 100 in each case. The “HETLI Obsd. plant response rating (scale 0 to 100)” value in the test with ducksalad (HETLI) (125 g a.i./ha) and in the test with ducksalad (HETLI) (500 g a.i./ha) was 100 in each case. Also, the “CYPDI Obsd.” value in test [1] (125 g a.i./ha) and in test [1] (500 g a.i./ha) was 0 in each case. Further, the “CYPDI Obsd. plant response rating (scale 0 to 100)” value in test [1] (125 g a.i./ha) and in test [1] (500 g a.i./ha) was 0 in each case. The results for the “ECHCG Obsd.” value in the test on barnyardgrass (ECHCG) (125 g a.i./ha) and with barnyardgrass (ECHCG) (500 g a.i./ha) were 65 and 90, respectively. The “ECHCG Obsd. plant response rating (scale 0 to 100)” value in the test on barnyardgrass (ECHCG) (125 g a.i./ha) is given as 65; in the test on barnyardgrass (ECHCG) (500 g a.i./ha) it was 90. Further, the “ORYSA Obsd.” value in test [2] (125 g a.i./ha) and in test [2] (500 g a.i./ha) was 0 in each case. Moreover, the “ORYSA Obsd. plant response rating (scale 0 to 100)” value in test [2] (125 g a.i./ha) and in test [2] (500 g a.i./ha) was 0 in each case.

Source of the values: patent publication US10294202B2, “Pyrrolidinones as herbicides” (FMC Corporation, priority 2013, dated 2019).
